In US20250101065A1, “REVERSE PEPTIDES FROM CORONAVIRUS FOR IMMUNOGENIC PURPOSES” (Emergex Vaccines Holding Limited, priority 2021, published 2025):
No end group written: not given here.

Experiments:
human PBMCs = test: IFN-gamma ELISPOT after stimulation of PBMCs with negative sense SARS-COV-2 peptides; type: cell-based
CD3+ T cells of PBMCs = test: Flow cytometry analysis of T cell surface markers after peptide stimulation of PBMCs; type: cell-based, human
Description: At day 7 post-stimulation, remaining PBMCs were resuspended in flow cytometry buffer (PBS+1% BSA+2 mM EDTA) at a concentration of 1×10^6 cells/mL, and blocked for at least 10 minutes. Cells were then aliquoted in a 96-well plate, centrifuged (5 mins/[…]/300×g), and resuspended in 45 μL buffer. Live/Dead stain was added (Fixable Near IR) at 1 μL in 1000 μL, and cells incubated at […] for 10 minutes in the dark. 120 μL buffer was added, samples were centrifuged for 5 mins, supernatants discarded and wash repeated with 200 μL buffer. Cells were then resuspended in buffer containing antibodies to T cell markers at the appropriate concentration (final staining volume 50 μL) and incubated for at least 30 minutes in the dark at […]
120 μL buffer was added to cell samples, centrifuged for 5 mins, supernatants discarded. This wash step was then repeated. Compensation beads were incubated with the individual antibodies at the same concentration. Voltages on the Attune flow cytometer were adjusted using antibody-stained compensation beads, as well as unstained and NIR-stained cells.
Acquisition was set to acquire at least 150,000 events on CD3 gated cells.
PBMCs were stained with a panel of antibodies (as listed in the previous section) against cell surface markers to characterize different T cell populations, such as naïve T cells (A), Central memory T cells (B), Effector memory T cells (C) and (D), and resident memory T cells (E). In addition, activation markers were also analysed (F) to (I). The percentage of positive cells gated on CD3+T cell populations were plotted.

[1] = PBMCs from EVB00028, day 7 post-stimulation

Sequence: LYVALLVALLTCQ [SEQ ID NO: 6, LYVALLVALLTCQ]
- IFN-gamma ELISPOT reactivity (human PBMCs; all three donors (EVB00028, EVB00031, EVB00033), 7 days stimulation, 24 h re-stimulation): strong reactivity
- Activation of CD3+ cells (upregulation of CD69, CD38, OX40/CD25, PDL1/CD25) (CD3+ T cells of PBMCs; [1]): induced activation
- Activation of CD3+ cells (upregulation of CD69, CD38, OX40/CD25, PDL1/CD25) (CD3+ T cells of PBMCs; PBMCs from EVB00033, day 7 post-stimulation): similarly activated

Sequence: VALLTCQTIGLCN [SEQ ID NO: 11]
- IFN-gamma ELISPOT reactivity (human PBMCs; donor EVB00033): reacted strongly
- Activation of CD3+ cells (upregulation of CD69, CD38, OX40/CD25, PDL1/CD25) (CD3+ T cells of PBMCs; [1]): induced activation

Sequence: VFTLHSRTSF [SEQ ID NO: 12]
- IFN-gamma ELISPOT reactivity (human PBMCs; donors EVB00028 and EVB00031): reacted strongly
